The target in test [1] is T1, G12V-mutant human KRAS (amino acid residues 1-188) (Homo sapiens, UniProt P01116, G12V).
T1 construct: G12V-mutant human KRAS (amino acid residues 1-188) with FLAG tag was purified from E. coli; made in house; host or cells: E. coli
In words: KRAS Binding Competition Assay (AlphaScreen; biotinylated KRpep-2d analogue), G12V. The following applies: geometric mean, read-out: KRAS GMean IC50 (uM) MUTATION: G12V. (In general: In Alpha technology, singlet oxygen from a donor bead excites a nearby acceptor bead.)

Test [2] deals with T2, G12D-mutant human KRAS (amino acid residues 1-188) (Homo sapiens, UniProt P01116, G12D).
T2 construct: G12D or G12C-mutant human KRAS (amino acid residues 1-188) with FLAG tag; made in house; host or cells: E. coli
In words: KRAS Binding Disruption Assay (AlphaScreen; biotinylated KRpep-2d analogue or RAF1-RBD), G12D. As to conditions: KRAS G12D; geometric mean; read-out: KRAS GMean IC50 (uM) MUTATION: G12D. The essentials:
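Compounds are titrated against 5-20 nM mutant KRAS and 5-20 nM of either a biotinylated KRpep-2d analogue or RAF1-RBD, incubated 1 h at 25° C. Disruption is detected as reduced Alpha signal after 1 h with donor and acceptor beads at 10 μg/mL.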

For orientation: IC50 means the midpoint of a concentration-inhibition curve. `Oc1cc(-c2ccc3c(N4[C@@H]5CC[C@H]4CNC5)nc(CCc4ccccn4)nc3c2)c2ccccc2c1` [P-0232, 4-(4-((1R,5S)-3,8-diazabicyclo[3.2.1]octan-8-yl)-2-(2-(pyridin-2-yl)ethyl)quinazolin-7-yl)naphthalen-2-ol]: the IC50 lay in the range of 10 to 100 µM in test [1] and 0.0001 to 10 µM in test [2].
Taken in the same sequence, the figures for `NC(=O)CCc1nc(N2[C@@H]3CC[C@H]2CNC3)c2ccc(-c3cc(O)cc4ccccc34)cc2n1` [P-0233, 3-(4-((1R,5S)-3,8-diazabicyclo[3.2.1]octan-8-yl)-7-(3-hydroxynaphthalen-1-yl)quinazolin-2-yl)propanamide] were 0.0001 to 10 µM and 0.0001 to 10 µM.
As for `CN1CCC[C@H]1COc1nc(N2C[C@H]3CC[C@@H](C2)N3)c2ccc(-c3cncc(Cl)c3Cl)cc2n1` [P-0234, 4-((1R,5S)-3,8-diazabicyclo[3.2.1]octan-3-yl)-7-(4,5-dichloropyridin-3-yl)-2-(((S)-1-methylpyrrolidin-2-yl)methoxy)quinazoline], the IC50 was in the range of 100 to 1000 µM in test [1] and 10 to 100 µM in test [2].
Taken in the same sequence, the figures for `CN1CCC[C@H]1COc1nc(N2CC3CCC(C2)N3)c2ccc(-c3cc(Cl)cn4ccnc34)cc2n1` [P-0235] were 10 to 100 µM and 10 to 100 µM.
Taken in the same sequence, the figures for `CN1CCC[C@H]1COc1nc(N2C[C@H]3CC[C@@H](C2)N3)c2ccc(-c3c(Cl)ccc4[nH]ccc34)cc2n1` [P-0236, 4-((1R,5S)-3,8-diazabicyclo[3.2.1]octan-3-yl)-7-(5-chloro-1H-indol-4-yl)-2-(((S)-1-methylpyrrolidin-2-yl)methoxy)quinazoline] were 10 to 100 µM and 10 to 100 µM.
Taken in the same sequence, the figures for `CN1CCc2ccc(Oc3nc(N4[C@@H]5CC[C@H]4CNC5)c4ccc(-c5cc(O)cc6ccccc56)cc4n3)cc2C1` [P-0237, 4-(4-((1R,5S)-3,8-diazabicyclo[3.2.1]octan-8-yl)-2-((2-methyl-1,2,3,4-tetrahydroisoquinolin-7-yl)oxy)quinazolin-7-yl)naphthalen-2-ol] were 10 to 100 µM and 10 to 100 µM.
On to `CN1CCc2cc(Oc3nc(N4[C@@H]5CC[C@H]4CNC5)c4ccc(-c5cc(O)cc6ccccc56)cc4n3)ccc2C1` [P-0238, 4-(4-((1R,5S)-3,8-diazabicyclo[3.2.1]octan-8-yl)-2-((2-methyl-1,2,3,4-tetrahydroisoquinolin-6-yl)oxy)quinazolin-7-yl)naphthalen-2-ol], for which the IC50 in test [1] and in test [2] was 0.0001 to 10 µM each time.
In the case of `CN1CCCC(Oc2nc(N3[C@@H]4CC[C@H]3CNC4)c3ccc(-c4cc(O)cc5ccccc45)cc3n2)C1` (stereo partly drawn) [P-0239, 4-(4-((1R,5S)-3,8-diazabicyclo[3.2.1]octan-8-yl)-2-((1-methylpiperidin-3-yl)oxy)quinazolin-7-yl)naphthalen-2-ol], the IC50 in test [1] and in test [2] was 0.0001 to 10 µM throughout.
With `Oc1cc(-c2ccc3c(N4[C@@H]5CC[C@H]4CNC5)nc(Cc4cccnc4)nc3c2)c2ccccc2c1` [P-0240, 4-(4-((1R,5S)-3,8-diazabicyclo[3.2.1]octan-8-yl)-2-(pyridin-3-ylmethyl)quinazolin-7-yl)naphthalen-2-ol], the IC50 in test [1] and in test [2] was 0.0001 to 10 µM throughout.
As for `Oc1cc(-c2ccc3c(N4[C@@H]5CC[C@H]4CNC5)nc(CCc4cccnc4)nc3c2)c2ccccc2c1` [P-0241, 4-(4-((1R,5S)-3,8-diazabicyclo[3.2.1]octan-8-yl)-2-(2-(pyridin-3-yl)ethyl)quinazolin-7-yl)naphthalen-2-ol], the half-inhibitory concentration (IC50) in test [1] and in test [2] was 0.0001 to 10 µM each time.
As to `CN(C)c1ccc(CCc2nc(N3C[C@H]4CC[C@@H](C3)N4)c3ccc(-c4cc(O)cc5ccccc45)cc3n2)cc1` [P-0242, 4-(4-((1R,5S)-3,8-diazabicyclo[3.2.1]octan-3-yl)-2-(4-(dimethylamino)phenethyl)quinazo-lin-7-yl)naphthalen-2-ol], the IC50 in test [1] and in test [2] was 0.0001 to 10 µM each time.
In the case of `Nc1ccc(CCc2nc(N3[C@@H]4CC[C@H]3CNC4)c3ccc(-c4cc(O)cc5ccccc45)cc3n2)cc1` [P-0243, 4-(2-(4-aminophenethyl)-4-((1R,5S)-3,8-diazabicyclo[3.2.1]octan-8-yl)quinazolin-7-yl)naphthalen-2-ol], the IC50 in test [1] and in test [2] was 0.0001 to 10 µM in each case.
With `CN(C)c1ccc(/C=C/c2nc(N3[C@@H]4CC[C@H]3CNC4)c3ccc(-c4cc(O)cc5ccccc45)cc3n2)cc1` [P-0244, 4-(4-((1R,5S)-3,8-diazabicyclo[3.2.1]octan-8-yl)-2-((E)-4-(dimethylamino)styryl)quinazolin-7-yl)naphthalen-2-ol], the IC50 in test [1] and in test [2] was 10 to 100 µM each time.
As to `C[C@@H](Oc1nc(N2C[C@H]3CC[C@@H](C2)N3)c2ccc(-c3cc(O)cc4ccccc34)cc2n1)[C@@H]1CCCN1C` [P-0245, 4-(4-((1R,5S)-3,8-diazabicyclo[3.2.1]octan-3-yl)-2-((R)-1-((S)-1-methylpyrrolidin-2-yl)ethoxy)quinazolin-7-yl)naphthalen-2-ol], the IC50 in test [1] and in test [2] was 0.0001 to 10 µM each time.
Turning to `CN1CC[C@@H](NC(=O)N2[C@H]3CC[C@@H]2CN(c2nc(OC[C@@H]4CCCN4C)nc4c(F)c(-c5cc(O)cc6ccccc56)ccc24)CC3)C1` [P-0246, (1R,6S)-3-(8-fluoro-7-(3-hydroxynaphthalen-1-yl)-2-(((S)-1-methylpyrrolidin-2-yl)methoxy)quinazolin-4-yl)-N-((R)-1-methylpyrrolidin-3-yl)-3,9-diazabicyclo[4.2.1]nonane-9-carboxamide], the IC50 in test [1] was 10 to 100 µM; in test [2], 0.0001 to 10 µM.
Taken in the same sequence, the figures for `CN1CCN(CCCC(=O)N2C3CCC2CN(c2nc(OC[C@@H]4CCCN4C)nc4c(F)c(-c5cc(O)cc6ccccc56)ccc24)CC3)CC1` (stereo partly drawn) [P-0247, 1-(3-(8-fluoro-7-(3-hydroxynaphthalen-1-yl)-2-(((S)-1-methylpyrrolidin-2-yl)methoxy)quinazolin-4-yl)-3,9-diazabicyclo[4.2.1]nonan-9-yl)-4-(4-methylpiperazin-1-yl)butan-1-one] were 10 to 100 µM and 10 to 100 µM.
Taken in the same sequence, the figures for `CN1CCC[C@H]1COc1nc(N2CC[C@@H]3CC[C@H](C2)N3C(=O)NC2CCOC2)c2ccc(-c3cc(O)cc4ccccc34)c(F)c2n1` (stereo partly drawn) [P-0248, (1R,6 S)-3-(8-fluoro-7-(3-hydroxynaphthalen-1-yl)-2-(((S)-1-methylpyrrolidin-2-yl)methoxy)quinazolin-4-yl)-N-(tetrahydrofuran-3-yl)-3,9-diazabicyclo[4.2.1]nonane-9-carboxamide] were 0.0001 to 10 µM and 10 to 100 µM.
For `CN1CC[C@@H](NC(=O)N2C3COCC2CN(c2nc(OC[C@@H]4CCCN4C)nc4c(F)c(-c5cc(O)cc6ccccc56)ccc24)C3)C1` [P-0250, 7-(8-fluoro-7-(3-hydroxynaphthalen-1-yl)-2-(((S)-1-methylpyrrolidin-2-yl)methoxy)quinazolin-4-yl)-N-((R)-1-methylpyrrolidin-3-yl)-3-oxa-7,9-diazabicyclo[3.3.1]nonane-9-carboxamide], the IC50 in test [1] and in test [2] was 0.0001 to 10 µM in each case.
On to `CN1CCN(CCCC(=O)N2C3COCC2CN(c2nc(OC[C@@H]4CCCN4C)nc4c(F)c(-c5cc(O)cc6ccccc56)ccc24)C3)CC1` [P-0252, 1-(7-(8-fluoro-7-(3-hydroxynaphthalen-1-yl)-2-(((S)-1-methylpyrrolidin-2-yl)methoxy)quinazolin-4-yl)-3-oxa-7,9-diazabicyclo[3.3.1]nonan-9-yl)-4-(4-methylpiperazin-1-yl)butan-1-one], for which the IC50 in test [1] and in test [2] was 10 to 100 µM each time.
Consider `CN1CCC[C@H]1COc1nc(N2C[C@H]3CC[C@@H](C2)N3)c2ccc(-c3c[nH]c4ccc(Cl)cc34)cc2n1` [P-0253, 4-((1R,5S)-3,8-diazabicyclo[3.2.1]octan-3-yl)-7-(5-chloro-1H-indol-3-yl)-2-(((S)-1-methylpyrrolidin-2-yl)methoxy)quinazoline], for which the IC50 in test [1] fell in the range of 100 to 1000 µM; in test [2], 10 to 100 µM.
Taken in the same sequence, the figures for `CN1CCC[C@H]1COc1nc(N2C[C@H]3CC[C@@H](C2)N3)c2ccc(-c3c[nH]c4ccccc34)cc2n1` [P-0254, 4-((1R,5S)-3,8-diazabicyclo[3.2.1]octan-3-yl)-7-(1H-indol-3-yl)-2-(((S)-1-methylpyrrolidin-2-yl)methoxy)quinazoline] were 10 to 100 µM and 10 to 100 µM.
For `CN1CCC[C@H]1COc1nc(N2C[C@H]3CC[C@@H](C2)N3)c2ccc(-c3c[nH]c4cccc(Cl)c34)cc2n1` [P-0255, 4-((1R,5S)-3,8-diazabicyclo[3.2.1]octan-3-yl)-7-(4-chloro-1H-indol-3-yl)-2-(((S)-1-methylpyrrolidin-2-yl)methoxy)quinazoline], the IC50 in test [1] and in test [2] was 10 to 100 µM in each case.
As for `CN1CCC[C@H]1COc1nc(N2[C@@H]3CC[C@H]2CNC3)c2ccc(-c3cccc4ccccc34)cc2n1` [P-0257, 4-((1R,5S)-3,8-diazabicyclo[3.2.1]octan-8-yl)-2-(((S)-1-methylpyrrolidin-2-yl)methoxy)-7-(naphthalen-1-yl)quinazoline], the IC50 in test [1] and in test [2] was 10 to 100 µM each time.
As for `CN1CCC[C@H]1COc1nc(N2[C@@H]3CC[C@H]2CNC3)c2ccc(-c3ccc4ccccc4c3)cc2n1` [P-0258, 4-((1R,5S)-3,8-diazabicyclo[3.2.1]octan-8-yl)-2-(((S)-1-methylpyrrolidin-2-yl)methoxy)-7-(naphthalen-2-yl)quinazoline], the IC50 in test [1] and in test [2] was 10 to 100 µM in each case.
